Laboratory results published in publication PMC7129073 (Clinical Microbiology and Infection, 2015).
≈ marks a conversion by molar mass, not a printed value.

How the values were obtained:
S. pyogenes [1] = assay: Sensitivity of CAP pathogens with/without antibiotic pretreatment; format: cell-based, Streptococcus pyogenes; conditions: Abs. 4
C. difficile = assay: E-test, isolates from a department of surgery; format: cell-based, Clostridium difficile; conditions: Clostridioides difficile, read-out: MIC of high level resistant strains
[2] = tested on: biofilms of S. aureus (SA204 and SA195) and S. epidermidis (ATCC35983 and ATCC35984); assay: Antibiotic lock, in vitro biofilm on polyurethane film, viable counts; format: cell-based, Staphylococcus species; conditions: any of the time intervals examined
S. pneumoniae [3] = assay: Broth microdilution; format: cell-based, Streptococcus pneumoniae
Other Haemophilus sp. = assay: Sensitivity of CAP pathogens with/without antibiotic pretreatment; format: cell-based
H. influenzae [4] = assay: Disk diffusion; format: cell-based, Haemophilus influenzae; conditions: 237 isolates
[5] = tested on: Other non-fermenting bacteria; assay: Sensitivity of CAP pathogens with/without antibiotic pretreatment; format: cell-based
S. -pneumoniae = assay: as above; format: cell-based, Streptococcus pneumoniae
Kl. pneumoniae = assay: as above; format: cell-based, Klebsiella pneumoniae
Moraxella spp. = assay: Disk diffusion; format: cell-based; conditions: 35 isolates
[6] = tested on: ‘wild type’ Staphylococcus epidermidis skin isolates; assay: NCCLS disk diffusion; format: cell-based; conditions: 52 isolates
Other Enterobacteriacae = assay: Sensitivity of CAP pathogens with/without antibiotic pretreatment; format: cell-based, Enterobacteriaceae
[7] = tested on: pathogens in community acquired pneumonia of different severity; assay: Sensitivity of CAP pathogens by Fine severity group; format: cell-based
S. pneumoniae (SPN) = assay: SENTRY Brazil, NCCLS broth microdilution; format: cell-based, Streptococcus pneumoniae
H. influenzae [8] = assay: Sensitivity of CAP pathogens with/without antibiotic pretreatment; format: cell-based, Haemophilus influenzae
[9] = tested on: beta-haemolytic streptococcal isolates; assay: Disk diffusion; format: cell-based, beta-haemolytic streptococci; conditions: 228 isolates
S. pneumoniae (Sp) = assay: Broth microdilution, point prevalence study Spain; format: cell-based, Streptococcus pneumoniae; conditions: 360 isolates, February 2004; penicillin I+R
H. influenzae [10] = assay: Disk diffusion, sputum isolates Athens 2001–2004; format: cell-based, Haemophilus influenzae
E. coli [11] = assay: Sensitivity of CAP pathogens with/without antibiotic pretreatment; format: cell-based, Escherichia coli
PRSP = assay: Broth microdilution; format: cell-based, Streptococcus pneumoniae
[12] = tested on: Total pathogens in community acquired pneumonia; assay: Sensitivity of CAP pathogens with/without antibiotic pretreatment; format: cell-based
S. pyogenes [13] = assay: Broth microdilution; format: cell-based, Streptococcus pyogenes; conditions: 212 isolates
S. aureus = assay: Sensitivity of CAP pathogens with/without antibiotic pretreatment; format: cell-based, Staphylococcus aureus
S. pneumoniae [14] = assay: MIC of invasive strains, Saint George Hospital 2001–2004; format: cell-based, Streptococcus pneumoniae
[15] = tested on: viridans group streptococci (VGS); assay: MIC; format: cell-based
Streptococcus pneumoniae [16] = assay: BSAC agar dilution, lower respiratory isolates UK and Ireland; format: cell-based
P. aeruginosa [17] = assay: Sensitivity of CAP pathogens with/without antibiotic pretreatment; format: cell-based, Pseudomonas aeruginosa; conditions: Abs. 3
H.influenzae = assay: Broth microdilution; format: cell-based, Haemophilus influenzae; conditions: Haemophilus influenzae
Staph. coaq (−) = assay: Sensitivity of CAP pathogens with/without antibiotic pretreatment; format: cell-based, coagulase-negative Staphylococcus
ERSP = assay: Broth microdilution; format: cell-based, Streptococcus pneumoniae
Enterococcus sp = assay: Sensitivity of CAP pathogens with/without antibiotic pretreatment; format: cell-based
S. pyogenes [18] = assay: PROTEKT Italy, NCCLS microdilution; format: cell-based, Streptococcus pyogenes; conditions: year 1: 2002
S. pneumoniae [19] = assay: PROTEKT Italy, NCCLS microdilution; format: cell-based, Streptococcus pneumoniae
[20] = tested on: Streptococcus pyogenes (SPY); assay: MIC; format: cell-based; conditions: 2522 isolates
[21] = tested on: Haemophilus influenzae (HI); assay: MIC; format: cell-based; conditions: 7489 isolates
[22] = tested on: Moraxella catarrhalis (MC); assay: MIC; format: cell-based; conditions: 2497 isolates
[23] = tested on: Streptococcus pneumoniae (SPN); assay: MIC; format: cell-based; conditions: 8378 isolates
K. pneumoniae = assay: MIC; format: cell-based, Klebsiella pneumoniae; conditions: BSAC
Escherichia coli (ECO) = assay: Broth microdilution; format: cell-based; conditions: 2001
[24] = tested on: glycopeptide intermediate Staphylococcus species (GISS); assay: VITEK II, screening plate and E test, blood isolates; format: cell-based, coagulase-negative Staphylococci; conditions: 73 GISS strains
E. coli [25] = assay: Disk diffusion, urine isolates of BPH patients; conditions: strains isolated after operative intervention
[26] = tested on: Salmonella, other 49 serotypes; assay: Disk diffusion, food isolates Spain; format: cell-based; conditions: n = 115
[27] = tested on: Staphylococcus coagulase negative (CNS); assay: Susceptibility testing; format: cell-based; conditions: conjunctival isolates 2000–2004
Streptococcus pneumoniae [28] = assay: Susceptibility testing; format: cell-based; conditions: 99 isolates tested
[29] = tested on: Salmonella serotype Typhimurium; assay: Disk diffusion, food isolates Spain; format: cell-based; conditions: n = 53
Haemophilus influenzae = assay: Susceptibility testing; format: cell-based; conditions: conjunctival isolates 2000–2004
S. aureus SCVs = assay: Resistance of small colony variants from cystic fibrosis patients; format: cell-based, Staphylococcus aureus; conditions: CF patients, Frankfurt 2004
K. oxytoca = assay: E-test susceptibility; format: cell-based, Klebsiella oxytoca
Shigella spp. = assay: Disk diffusion, stool isolates Tehran; format: cell-based; conditions: 96 isolates
Enterobacter spp = assay: E-test susceptibility; format: cell-based
Acinetobacter = assay: Disk diffusion; format: cell-based; conditions: 37 isolates selected as resistant to beta-lactams
E. coli [30] = assay: E-test susceptibility; format: cell-based, Escherichia coli
P. aeruginosa [31] = assay: Disk diffusion, urine isolates of BPH patients
enterococci = assay: Disk diffusion, urine isolates of BPH patients; conditions: strains isolated post-operatively
nontyphoidal Salmonella = assay: Agar dilution, isolates from chickens 1998–2004; format: cell-based, Salmonella spp.
[32] = tested on: Salmonella serotype Enteritidis; assay: Disk diffusion, food isolates Spain; format: cell-based; conditions: n = 96
Escherichia coli = assay: EARSS Ireland, invasive isolates; format: cell-based; conditions: Jan'01–Jun'04, 2432 isolates
Staphylococcus aureus [33] = assay: EARSS Ireland, invasive isolates; format: cell-based
Staphylococcus aureus [34] = assay: Susceptibility testing; format: cell-based; conditions: conjunctival isolates 2000–2004
[35] = NCCLS breakpoints (Amox/Clav 2/1 mcg/mL)

CC[C@H]1OC(=O)[C@H](C)[C@@H](O[C@H]2C[C@@](C)(OC)[C@@H](O)[C@H](C)O2)[C@H](C)[C@@H](O[C@@H]2O[C@H](C)C[C@H](N(C)C)[C@H]2O)[C@](C)(O)C[C@@H](C)C(=O)[C@H](C)[C@@H](O)[C@]1(C)O [erythromycin]
% of sensitive strains (S. pyogenes [1]; after pretreatment): 100.0%
% of sensitive strains (S. pyogenes [1]; without pretreatment): 100.0%
MIC (C. difficile): > 256 µg/mL
significant biofilm killing [2]: not achieved
%Sus (S. pneumoniae [3]; [35]): 71.2%
MIC90 (S. pneumoniae [3]; Streptococcus pneumoniae): > 32 µg/mL
% of sensitive strains (Other Haemophilus sp.; after pretreatment, Abs. 11): 0.0%
% of sensitive strains (Other Haemophilus sp.; without pretreatment, Abs. 21): 00%
Susceptible isolates (H. influenzae [4]): 94%
% of sensitive strains ([5]; after pretreatment, Abs. 0): 0.0%
% of sensitive strains ([5]; without pretreatment, Abs. 1): 0.0%
% of sensitive strains (S. -pneumoniae; after antibiotic pretreatment, Abs. 3): 100.0%
% of sensitive strains (S. -pneumoniae; without antibiotic pretreatment, Abs. 13): 100.0%
% of sensitive strains (Kl. pneumoniae; after pretreatment, Abs. 5): 0.0%
% of sensitive strains (Kl. pneumoniae; without pretreatment, Abs. 4): 0.0%
Susceptible isolates (Moraxella spp.): 100%
% resistant [6]: 46.2%
% of sensitive strains (Other Enterobacteriacae; after pretreatment, Abs. 5): 0.0%
% of sensitive strains (Other Enterobacteriacae; without pretreatment, Abs. 2): 0.0%
sensitivity, total strains ([7]; higher severity group (Fine scores >70)): 26,3%
sensitivity, total strains ([7]; lower severity group (Fine scores <70)): 17.6%
% S (S. pneumoniae (SPN); 1998): 85%
% S (S. pneumoniae (SPN); 1999): 88%
% S (S. pneumoniae (SPN); 2000): 91%
% S (S. pneumoniae (SPN); 2001): 90%
% S (S. pneumoniae (SPN); 2002): 94%
% S (S. pneumoniae (SPN); 2003): 91%
% of sensitive strains (H. influenzae [8]; after pretreatment, Abs. 10): 0.0%
% of sensitive strains (H. influenzae [8]; without pretreatment, Abs. 26): 0.0%
Susceptible isolates [9]: 98%
resistance (S. pneumoniae (Sp)): 36%
resistance rate (H. influenzae [10]; 2001–2002): 49.5%
resistance rate (H. influenzae [10]; 2003–2004): 58.0%
% of sensitive strains (E. coli [11]; after pretreatment, Abs. 1): 0.0%
% of sensitive strains (E. coli [11]; without pretreatment, Abs. 5): 0.0%
%Sus (PRSP; [35]): 21.5%
MIC90 (PRSP; Streptococcus pneumoniae, PRSP): > 32 µg/mL
% of sensitive strains ([12]; after pretreatment, Abs. 48): 22.9%
% of sensitive strains ([12]; without pretreatment, Abs. 95): 26.3%
nonsusceptible (S. pyogenes [13]): 10.8%
% of sensitive strains (S. aureus; after pretreatment, Abs. 4): 75.0%
% of sensitive strains (S. aureus; without pretreatment, Abs. 11): 45.5%
% S (S. pneumoniae [14]): 82%
%R (S. pneumoniae [14]): 18%
MIC50 [15]: 0.12 µg/mL (≈ 0.164 µM)
MIC90 [15]: 256 µg/mL (≈ 349 µM)
resistance (PEN-NS >0.06, TET-R >1, ERY-R >0.5, CIP-R >2 mg/L) (Streptococcus pneumoniae [16]; Ireland 1999–2000, N 66): 27.3%
resistance (same cut-offs) (Streptococcus pneumoniae [16]; Ireland 2000–2001, N 59): 23.7%
resistance (same cut-offs) (Streptococcus pneumoniae [16]; Ireland 2001–2002, N 68): 25.0%
resistance (same cut-offs) (Streptococcus pneumoniae [16]; Ireland 2002–2003, N 89): 12.4%
resistance (same cut-offs) (Streptococcus pneumoniae [16]; Ireland 2003–2004, N 76): 9.2%
resistance (same cut-offs) (Streptococcus pneumoniae [16]; UK 1999–2000, N 595): 11.8%
resistance (same cut-offs) (Streptococcus pneumoniae [16]; UK 2000–2001, N 608): 10.0%
resistance (same cut-offs) (Streptococcus pneumoniae [16]; UK 2001–2002, N 631): 10.8%
resistance (same cut-offs) (Streptococcus pneumoniae [16]; UK 2002–2003, N 683): 9.7%
resistance (same cut-offs) (Streptococcus pneumoniae [16]; UK 2003–2004, N 709): 10.6%
% of sensitive strains (P. aeruginosa [17]; after pretreatment): 0.0%
% of sensitive strains (P. aeruginosa [17]; without pretreatment): 0.0%
MIC90 (H.influenzae): 8 µg/mL (≈ 10.9 µM)
% of sensitive strains (Staph. coaq (−); after pretreatment, Abs. 2): 50.0%
% of sensitive strains (Staph. coaq (−); without pretreatment, Abs. 4): 75.0%
%Sus (ERSP; [35]): 0.0%
MIC90 (ERSP; Streptococcus pneumoniae): > 32 µg/mL
% of sensitive strains (Enterococcus sp; after pretreatment, Abs. 0): 0.0%
% of sensitive strains (Enterococcus sp; without pretreatment, Abs. 1): 0.0%

CC[C@H]1OC(=O)[C@H](C)C(=O)[C@H](C)[C@@H](O[C@@H]2O[C@H](C)C[C@H](N(C)C)[C@H]2O)[C@](C)(OC)C[C@@H](C)C(=O)[C@H](C)[C@H]2N(CCCCn3cnc(-c4cccnc4)c3)C(=O)O[C@]12C [telithromycin]
Susceptibility (S. pyogenes [18]): 92.7%
susceptible (S. pneumoniae [19]; year 1: 2002): 99.7%
susceptible (S. pneumoniae [19]; year 2: 2003): 99.1%
MIC90 [20]: 0.008 ig/ml
MIC90 [21]: 4 ig/ml
MIC90 [22]: 0.12 ig/ml
MIC90 [23]: 0.008 ig/ml
MIC50 [15]: 0.007 µg/mL (≈ 0.00862 µM)
MIC90 [15]: 2 µg/mL (≈ 2.46 µM)

CNC(C)C1CCC(N)C(OC2C(N)CC(N)C(OC3OCC(C)(O)C(NC)C3O)C2O)O1 (stereo not drawn) [gentamicin]
susceptibility category (K. pneumoniae): resistant
susceptible (Escherichia coli (ECO); NAL-resistant isolates): 68.9%
susceptible (Escherichia coli (ECO); NAL-susceptible isolates): 91.2%
significant biofilm killing [2]: not achieved
resistance rate [24]: 87,7%
resistance (E. coli [25]): 82.7%
resistance rate (NCCLS M100-S13) [26]: 0%
resistant isolates [27]: 17.9%
resistant isolates (Streptococcus pneumoniae [28]): 45.4%
resistance rate (NCCLS M100-S13) [29]: 4%
resistant isolates (Haemophilus influenzae): 1.6%
resistance rate of SCV isolates (S. aureus SCVs): 46.2%
Susceptible isolates (K. oxytoca; ICU): 100/100%
Susceptible isolates (K. oxytoca; non ICU): 100/100%
intermediatly resistant (Shigella spp.): 34%
sensitive (Shigella spp.): 54%
Susceptible isolates (Enterobacter spp; ICU): 99%
Susceptible isolates (Enterobacter spp; non ICU): 100%
resistant isolates (Acinetobacter): 100.0%
Susceptible isolates (E. coli [30]; ICU, SRGA breakpoints, tigecycline tentative S ≤2 μg/ml): 98/98%
Susceptible isolates (E. coli [30]; non ICU): 98/98%
resistance (P. aeruginosa [31]): 86.7%
resistance (enterococci): 66.7%
resistance (nontyphoidal Salmonella; Belgian collection (caecal samples; Belgium, France, Netherlands)): ≤ 1%
resistance (nontyphoidal Salmonella; Germany (carcass meat)): ≤ 1%
resistance rate (NCCLS M100-S13) [32]: 1%
resistant isolates (Escherichia coli): 3.7%
high-level resistance ([15]; 107 strains): 0.9%
resistance amongst MRSA isolates (Staphylococcus aureus [33]; 1999): 58.4%
resistance amongst MRSA isolates (Staphylococcus aureus [33]; 2003): 13.1%
resistant isolates (Staphylococcus aureus [34]): 12%
